Data taken from patent US7718390B2, “Toxoplasma gondii cylclic GMP dependent protein kinase G as a chemotherapeutic target for antiprotozoal agents” (priority 1999, dated 2010).
Where two headings read alike, the source gives them in different places.

Legend:
[1] = system: E. tenella PKG (120 kDa protein); test: Competitive binding assay using [3H] Inhibitor Compound; parameters: species or system Eimeria tenella; settings: purified native PKG fraction
Procedure: PKG is incubated with appropriately diluted [^3H] Inhibitor Compound for 60 minutes on ice and free ligand is separated from bound ligand by elution through 0.8 ml G-25 gel filtration columns (purchased from AGTC). The void volume, containing ligand-bound protein, is collected and radioactivity assessed by liquid scintillation counting. For competitive binding studies, excess or appropriately diluted cold competitor(s) are added simultaneously with, or 0.01-5 minutes before, the addition of radiolabeled compound. The concentration of the test compound required to inhibit 50% (IC50) of the binding of the labeled inhibitor to the parasite drug binding protein(s) is calculated.
For the competitive binding assay PKG may be the S100 fraction, crude preparation containing PKG activity, or recombinant PKG. Generally, the PKG preparation contains 20-50 μg of protein.
The S100 fraction was dialyzed against 2 L of Buffer A (30 mM sodium phosphate, pH 7.4, 1 mM DTT, 1 mM EDTA, 20% glycerol, 10 mM sodium fluoride, 0.1 mM sodium orthovanadate) overnight at room temperature. The dialysate was centrifuged at 100,000×g for 1 hour and the pellet discarded. […]
(d) cGMP agarose affinity chromatography. […] Fractions were analyzed for [^3H]-Inhibitor Compound binding, PKG activity and by silver staining following polyacrylamide gel electrophoresis. […]

E. tenella PKG = E. tenella PKG (Eimeria tenella, UniProt Q8MMZ8); test: biochemical; type: biochemical; settings: for IC50: read-out: IC50, inhibition of PKG catalytic activity
Sequence of E. tenella PKG (Q8MMZ8 2-1003): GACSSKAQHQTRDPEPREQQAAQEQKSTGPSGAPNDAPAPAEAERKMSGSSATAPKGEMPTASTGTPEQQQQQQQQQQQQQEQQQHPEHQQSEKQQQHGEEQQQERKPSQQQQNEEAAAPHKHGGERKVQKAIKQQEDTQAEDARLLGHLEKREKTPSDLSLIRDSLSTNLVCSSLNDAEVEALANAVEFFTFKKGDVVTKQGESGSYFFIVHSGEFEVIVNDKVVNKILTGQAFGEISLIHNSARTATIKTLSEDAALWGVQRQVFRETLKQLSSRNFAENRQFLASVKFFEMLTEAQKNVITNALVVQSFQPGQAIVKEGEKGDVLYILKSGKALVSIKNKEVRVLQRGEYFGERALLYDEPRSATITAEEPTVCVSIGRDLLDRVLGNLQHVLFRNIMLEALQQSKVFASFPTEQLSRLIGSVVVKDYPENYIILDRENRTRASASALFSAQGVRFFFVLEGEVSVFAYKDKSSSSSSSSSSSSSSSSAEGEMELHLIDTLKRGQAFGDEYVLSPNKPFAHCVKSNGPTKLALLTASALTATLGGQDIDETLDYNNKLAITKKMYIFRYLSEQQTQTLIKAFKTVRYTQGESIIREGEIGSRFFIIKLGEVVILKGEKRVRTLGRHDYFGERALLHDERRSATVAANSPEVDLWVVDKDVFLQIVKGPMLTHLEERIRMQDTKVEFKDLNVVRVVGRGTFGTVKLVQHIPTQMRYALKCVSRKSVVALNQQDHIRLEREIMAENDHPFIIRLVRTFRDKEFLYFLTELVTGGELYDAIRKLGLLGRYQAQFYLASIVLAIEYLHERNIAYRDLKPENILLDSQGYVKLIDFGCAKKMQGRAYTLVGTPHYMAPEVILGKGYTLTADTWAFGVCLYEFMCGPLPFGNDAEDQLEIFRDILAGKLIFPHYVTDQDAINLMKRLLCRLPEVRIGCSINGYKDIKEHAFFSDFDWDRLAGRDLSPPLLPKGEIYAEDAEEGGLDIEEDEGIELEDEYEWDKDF
Procedure: The enzyme inhibition assay involves adding PKG or an extract containing PKG to mixtures of enzyme substrates (one of which is radiolableled) and the test compound, each of which are present in known concentrations. The amount of the enzyme is chosen such that less than 20% of the radiolabeled substrate (usually [^32P]- or [^33P]-ATP,) is consumed during the assay. The assay is carried out with the test compound at a series of different dilution levels. After a period of incubation, the labeled portion of the ATP substrate becomes covalently attached by enzymatic action to the peptide or protein substrate. This reaction product is separated from unincorporated precursor and counted.
E. tenella PKG purified fraction (obtained as described in Example 3) (0.05 μl) is incubated for 2 hours at room temperature in 20 μl of an incubation mixture containing: 25 mM HEPES, pH 7.4, 10 mM MgCl2, 5 mM beta-mercaptoethanol, 20 mM beta-glycerophosphate (or 100 μM sodium orthovanadate), 10 μM cGMP, 2 μM ATP, 10 nM [^33P] ATP (2000 Ci/mmole), 400 μM Kemptide (or 2 mM Kemptide or 0.43 mg/ml myelin basic protein). The reaction is then quenched with 2.5 μl of 0.25 M phosphoric acid per 20 μl assay volume, and the mixture is spotted on Whatman P81 chromatography paper. The chromatography paper is allowed to dry for 2 minutes, washed 5 times for 3 min. each with 150 mls of 75 mM phosphoric acid, then washed briefly with 95% ethanol. After air drying, labeled kemptide remaining on the filter is quantitated by liquid scintillation counting.
E. tenella PKG purified fraction as described above (0.05 μl) was incubated for 2 hours at room temperature in 20 μl of an incubation mixture containing: 25 mM HEPES, pH 7.4, 10 mM MgCl2, 5 mM beta-mercaptoethanol, 20 mM beta-glycerophosphate (or 100 μM sodium orthovanadate), 10 μM cGMP, 2 μM ATP, 10 nM [^33P] ATP (2000 Ci/mmole), 400 μM Kemptide (or 2 mM Kemptide or 0.43 mg/ml myelin basic protein). […] After air drying, labeled kemptide remaining on the filter was quantitated by liquid scintillation counting.

Row | Structure (SMILES) | binding to the 120 kDa E. tenella protein (PKG) [1] | IC50 (E. tenella PKG; native E. tenella PKG) [nM] | IC50 (E. tenella PKG; recombinant expressed E. tenella PKG (Et.PKG7, Sf9 cells)) [nM] | stimulation of kinase activity by cyclic nucleotide cofactor (E. tenella PKG; biochemically purified native E. tenella protein, compared with absence of cyclic nucleotide cofactors)
1 | CN1CCC(c2cc(-c3ccncc3)c(-c3ccc(F)cc3)[nH]2)CC1 [Inhibitor Compound, 2-(4-fluorophenyl)-5-(N-methylpiperidin-4-yl)-3-(4-pyridyl)pyrrole] | specifically binds | < 5 | < 5 | 
2 | Nc1nc2c(ncn2[C@@H]2O[C@@H]3COP(=O)(O)O[C@H]3[C@H]2O)c(=O)[nH]1 [cGMP] |  |  |  | greater than 400 fold
